In assay [1] the target is Isocitrate dehydrogenase [NADP] cytoplasmic (Homo sapiens) (UniProt O75874). Briefly: Inhibition of human IDH1 expressed in IPTG-induced Escherichia coli BL21 cells assessed as reduction of NADP+ to NADPH after 5 mins by spectrophotometry. Also on record: concentration or dose not given beside the values.
Assay [2] concerns Isocitrate dehydrogenase [NADP] cytoplasmic (Homo sapiens), O75874 [R132H]. Put plainly: Inhibition of human IDH1 R132H mutant expressed in IPTG-induced Escherichia coli BL21 cells assessed as oxidation of NADPH to NADP+ after 5 mins by spectrophotometry. Also on record: concentration or dose not given beside the values.

Molecules are shown by their SMILES.

Chain of Isocitrate dehydrogenase [NADP] cytoplasmic (Homo sapiens) (O75874 whole entry): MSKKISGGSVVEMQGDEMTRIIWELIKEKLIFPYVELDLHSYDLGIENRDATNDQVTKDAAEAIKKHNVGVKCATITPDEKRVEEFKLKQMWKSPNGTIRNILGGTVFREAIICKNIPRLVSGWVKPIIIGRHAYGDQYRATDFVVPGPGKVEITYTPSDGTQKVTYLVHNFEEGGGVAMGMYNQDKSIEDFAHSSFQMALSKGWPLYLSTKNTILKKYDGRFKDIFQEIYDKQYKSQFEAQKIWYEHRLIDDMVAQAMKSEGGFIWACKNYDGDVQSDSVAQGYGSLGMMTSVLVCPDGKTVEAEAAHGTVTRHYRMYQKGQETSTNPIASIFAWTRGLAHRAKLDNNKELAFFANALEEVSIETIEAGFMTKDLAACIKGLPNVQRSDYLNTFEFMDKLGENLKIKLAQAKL
Chain of Isocitrate dehydrogenase [NADP] cytoplasmic (Homo sapiens), O75874 [R132H] (O75874 whole entry R132H): as the sequence (O75874 whole entry) above, with R132H counted along it

As to `COc1c(O)cc2oc3cc4c(c(O)c3c(=O)c2c1CC=C(C)C)C=CC(C)(C)O4`, the Activity in assay [1] was 109%; in assay [2], 98.7%.

On to `CC1(C)CC[C@]2(C(=O)O)CC[C@]3(C)C(=CC[C@@H]4[C@@]5(C)CC[C@H](O)C(C)(C)[C@@H]5CC[C@]43C)[C@@H]2C1`, for which the Activity in assay [1] turned out to be 101%; in assay [2], 117%.

For the molecule `CC1(C)CC[C@]2(C)CC[C@]3(C)C(=CC[C@@H]4[C@@]5(C)[C@@H](O)C[C@H](O)C(C)(C)[C@@H]5CC[C@]43C)[C@@H]2C1`, the Activity in assay [1] was 99.2%; in assay [2], 111%.

With `CC[C@H](CC[C@@H](C)[C@H]1CC[C@H]2[C@@H]3CC=C4C[C@@H](O[C@@H]5O[C@H](CO)[C@@H](O)[C@H](O)[C@H]5O)CC[C@]4(C)[C@H]3CC[C@]12C)C(C)C`, the Activity in assay [1] worked out at 94.6%; in assay [2] it was 103%.

On to `COc1ccc(C(=O)O[C@H]2[C@@H]3C=CO[C@@H](O[C@@H]4O[C@H](CO)[C@@H](O)[C@H](O)[C@H]4O)[C@@H]3[C@@]3(CO)O[C@@H]23)cc1OC`, for which the Activity came out at 107% in assay [1] and 97.7% in assay [2].

As for `CC(C)CCC[C@@H](C)[C@H]1CC[C@H]2[C@@H]3CC=C4C[C@@H](O)CC[C@]4(C)[C@H]3CC[C@]12C`, the Activity was found to be 105% in assay [1] and 96.3% in assay [2].

For the molecule `C[C@H]1[C@H](C)CC[C@]2(C(=O)O)CC[C@]3(C)C(=CC[C@@H]4[C@@]5(C)CC[C@H](O)C(C)(C)[C@@H]5CC[C@]43C)[C@H]12`, the Activity in assay [1] came out at 102%; in assay [2], 114%.

As for `O=C(/C=C/c1ccccc1)NCCCCNC(=O)c1ccc(O)cc1`, the results for the Activity in assay [1] and in assay [2] were 100% and 106%, respectively.

Regarding `C[C@H]1[C@@H](O)CC[C@@H]2[C@]1(C)CC[C@H]1[C@@]2(C)CC[C@@]2(C)[C@@H]3CC(C)(C)CC[C@]3(C)CC[C@]12C`, the Activity in assay [1] was 109%; in assay [2], 113%.

Turning to `C=C(C)[C@@H]1CC[C@]2(C(=O)O)CC[C@]3(C)[C@H](CC[C@@H]4[C@@]5(C)CC[C@H](O)C(C)(C)[C@@H]5CC[C@]43C)[C@@H]12`, the figures for the Activity in assay [1] and in assay [2] were 102% and 112%, respectively.

Regarding `Cc1cc(=O)c2c(O)c3c(cc2o1)OC(C)(C)[C@@H](O)C3`, the Activity in assay [1] was found to be 98.2%; in assay [2], 105%.

In the case of `COc1c2c(cc3oc(CO[C@@H]4O[C@H](CO)[C@@H](O)[C@H](O)[C@H]4O)cc(=O)c13)O[C@H](C(C)(C)O)C2`, the Activity stood at 96.8% in assay [1] and 112% in assay [2].

As for `CC(C)=CCc1c(O)c(CC=C(C)C)c2oc3c(O)ccc(O)c3c(=O)c2c1O`, the Activity was determined as 89.9% in assay [1] and 93.9% in assay [2].

For the molecule `O=C(/C=C/c1ccc(O)cc1)c1ccc(O)cc1O`, the values for the Activity in assay [1] and in assay [2] were 94.6% and 98.1%, respectively.

As for `O=C1C[C@@H](c2ccc(O)cc2)Oc2cc(O)cc(O)c21`, the Activity in assay [1] was 102%; in assay [2], 109%.

Turning to `CC(C)=CCOc1c2occc2cc2ccc(=O)oc12`, the Activity in assay [1] was determined as 99%; in assay [2], 102%.

Take `CC1(C)CC[C@]2(C(=O)O)CC=C3[C@]4(C)CC[C@H]5C(C)(C)[C@@H](O)CC[C@]5(C)[C@H]4CC[C@@]3(C)[C@@H]2C1`: the Activity in assay [1] stood at 103%; in assay [2], 113%.

With `O=c1cc(-c2ccc(O)c(O)c2)oc2cc(O)cc(O)c12`, the Activity was determined as 96.8% in assay [1] and 93.6% in assay [2].

For `CC1(C)CC[C@]2(C)CC[C@]3(C)C(=CC[C@@H]4[C@@]5(C)CC[C@H](O)C(C)(C)[C@@H]5[C@H](O)C[C@]43C)[C@@H]2C1`, the Activity in assay [1] was found to be 102%; in assay [2], 114%.

As to `O=c1c(O)c(-c2ccccc2)oc2cc(O)cc(O)c12`, the Activity was determined as 89.1% in assay [1] and 95% in assay [2].

Turning to `C=C1CC[C@@H]2[C@H]([C@H]3[C@H]1CC[C@]3(C)O)C2(C)C`, the Activity was 106% in assay [1] and 107% in assay [2].

`O=C(O[C@H]1[C@@H]2C=CO[C@@H](O[C@@H]3O[C@H](CO)[C@@H](O)[C@H](O)[C@H]3O)[C@@H]2[C@@]2(CO)O[C@@H]12)c1ccc(O)c(O)c1`: the Activity in assay [1] stood at 88.3%; in assay [2], 107%.

For `C=C[C@]1(C)CC[C@@]2(C)C3=CCC[C@](C)(CO)[C@@H]3CC[C@@H]2C1`, the Activity in assay [1] came to 106%; in assay [2] it was 116%.

In the case of `O=c1cc(-c2ccccc2)oc2cc(O)cc(O)c12`, the Activity in assay [1] came out at 97.6%; in assay [2], 96.7%.

Consider `CC1(C)CC[C@]2(C)CC=C3[C@]4(C)CC[C@H]5C(C)(C)[C@@H](O)CC[C@]5(C)[C@H]4CC[C@@]3(C)[C@@H]2C1`, for which the Activity in assay [1] is 106%; in assay [2], 109%.

As to `CC(C)=CCc1c(O)c(CC=C(C)C)c2oc3c(O)cccc3c(=O)c2c1O`, the results for the Activity in assay [1] and in assay [2] were 92.8% and 109%, respectively.

For `C[C@H]1[C@H](C)CC[C@]2(C)CC[C@]3(C)C(=CC[C@@H]4[C@@]5(C)CC[C@H](O)C(C)(C)[C@@H]5CC[C@]43C)[C@H]12`, the Activity was determined as 105% in assay [1] and 112% in assay [2].

Regarding `COc1ccc(-c2cc(=O)c3c(O)cc(O[C@@H]4O[C@H](COC5OC[C@@H](O)[C@H](O)[C@H]5O)[C@@H](O)[C@H](O)[C@H]4O)cc3o2)cc1O` (stereo not given in full), the Activity in assay [1] was 104%; in assay [2] it was 116%.

Take `O=c1c(O)c(-c2cc(O)c(O)c(O)c2)oc2cc(O)cc(O)c12`: the Activity stood at 95.5% in assay [1] and 93.2% in assay [2].

As for `CC[C@H](CC[C@@H](C)[C@H]1CC[C@H]2[C@@H]3CC=C4C[C@@H](O)CC[C@]4(C)[C@H]3CC[C@]12C)C(C)C`, the Activity in assay [1] is 105%; in assay [2], 98.8%.

As for `CC[C@H](/C=C/[C@@H](C)[C@H]1CC[C@H]2[C@@H]3CC=C4C[C@@H](O)CC[C@]4(C)[C@H]3CC[C@]12C)C(C)C`, the Activity is 111% in assay [1] and 101% in assay [2].

Take `O=c1c(O)c(-c2ccc(O)cc2)oc2cc(O)cc(O)c12`: the figures for the Activity in assay [1] and in assay [2] were 104% and 112%, respectively.

In the case of `CC1(C)CC[C@]2(C)CC[C@]3(C)C(=CC[C@@H]4[C@@]5(C)[C@@H](O)C[C@H](O)C(C)(C)[C@@H]5[C@H](O)C[C@]43C)[C@@H]2C1`, the Activity in assay [1] was found to be 98.6%; in assay [2], 99%.

As for `C=C1CC[C@@H]2[C@](C)(CCC[C@]2(C)C(=O)O)[C@H]1CCc1ccoc1`, the Activity was determined as 100% in assay [1] and 92.8% in assay [2].

Take `C/C=C(/C)C(=O)O[C@H]1Cc2c(cc3oc(CO)cc(=O)c3c2O)OC1(C)C`: the Activity was found to be 102% in assay [1] and 108% in assay [2].

Take `C=C(C)C(C)CC[C@@H](C)[C@H]1CC[C@@]2(C)[C@@H]3CC[C@H]4C(C)(C)C(=O)CC[C@]4(C)C3=CC[C@]12C` (stereo not given in full): the figures for the Activity in assay [1] and in assay [2] were 106% and 124%, respectively.

In the case of `O=c1cc(-c2ccc(O)cc2)oc2cc(O)cc(O)c12`, the Activity in assay [1] is 97.4%; in assay [2], 84%.

Regarding `O=C(O)[C@H]1O[C@@H](Oc2cc3oc(-c4ccc(O)cc4)cc(=O)c3c(O)c2O)[C@H](O)[C@@H](O)[C@@H]1O`, the Activity in assay [1] is 88.8%; in assay [2], 91.5%.

On to `COc1ccc(-c2oc3c(CC=C(C)C)c(O)cc(O)c3c(=O)c2O)cc1`, for which the Activity is 97.9% in assay [1] and 94.6% in assay [2].

In the case of `COc1c(O)cc2oc3cc(O)c4c(c3c(=O)c2c1CC=C(C)C)OC(C)(C)CC4`, the Activity in assay [1] came to 100%; in assay [2] it was 106%.

(Values after ChEMBL document CHEMBL3632508, “Discovery of α-mangostin as a novel competitive inhibitor against mutant isocitrate dehydrogenase-1” (Bioorg Med Chem Lett, 2015).)
